The values below come from ChEMBL document CHEMBL4229568, “Discovery of natural flavonoids as activators of Nrf2-mediated defense system: Structure-activity relationship and inhibition of intracellular oxidative insults” (Bioorg Med Chem, 2018).

Activity calls are given as the source filed them. The rule behind the calls is not given here.

For test [1], the target named is T1, Nuclear factor erythroid 2-related factor 2 (Homo sapiens) (UniProt Q16236).
T1 sequence (whole entry): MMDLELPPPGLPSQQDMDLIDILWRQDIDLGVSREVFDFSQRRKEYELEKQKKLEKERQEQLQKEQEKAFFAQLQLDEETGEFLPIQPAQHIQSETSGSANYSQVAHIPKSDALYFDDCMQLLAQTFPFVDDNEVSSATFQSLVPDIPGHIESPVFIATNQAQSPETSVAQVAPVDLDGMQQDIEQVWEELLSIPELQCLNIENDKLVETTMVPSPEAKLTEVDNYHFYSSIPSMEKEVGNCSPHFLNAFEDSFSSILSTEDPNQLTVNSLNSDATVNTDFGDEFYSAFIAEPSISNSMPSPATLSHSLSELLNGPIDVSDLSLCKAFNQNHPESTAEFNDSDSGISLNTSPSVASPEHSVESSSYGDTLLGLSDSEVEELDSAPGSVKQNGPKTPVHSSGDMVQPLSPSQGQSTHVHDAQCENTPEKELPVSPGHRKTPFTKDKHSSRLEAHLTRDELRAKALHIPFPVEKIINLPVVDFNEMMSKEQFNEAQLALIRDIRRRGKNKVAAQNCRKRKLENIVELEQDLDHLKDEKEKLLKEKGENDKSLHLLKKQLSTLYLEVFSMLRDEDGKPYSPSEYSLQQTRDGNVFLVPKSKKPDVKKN
The test can be described thus: Activation of Nrf2 in human BEAS2B cells assessed as upregulation of Nrf2 protein expression at 50 to 100 uM after 18 hrs by immunoblot analysis. It counts as cell-based. On the technique in general: A western blot detects proteins with antibodies after separation by electrophoresis.

The subject of test [2] is BEAS-2B. The test is described as follows: Downregulation of Keap1 protein levels in human BEAS2B cells at 50 to 100 uM after 18 hrs by immunoblot analysis. It counts as functional, cell-based.
The target of test [3] is T1, Nuclear factor erythroid 2-related factor 2 (Homo sapiens). The test can be described thus: Activation of Nrf2 in human BEAS2B cells assessed as upregulation of NQO1 protein expression at 6.25 uM after 8 to 24 hrs by immunoblot analysis. The test is classed as cell-based.
Test [4] has the same target. The test is described as follows: Activation of Nrf2 in human BEAS2B cells assessed as upregulation of gamma-GCS protein expression at 6.25 uM after 8 to 24 hrs by immunoblot analysis. It counts as cell-based.
For test [5], the system named is BEAS-2B. The test is described as follows: Cytoprotective activity in human BEAS2B cells transfected with Nrf2-SiRNA assessed as decrease in As(+3)-induced cell death at 6.25 uM preincubated for 8 hrs followed by As(+3) challenge and measured after 24 hrs by MTT assay. It counts as functional, cell-based.
In test [6] the target is T1, Nuclear factor erythroid 2-related factor 2 (Homo sapiens). The test is described as follows: Inhibition of Nrf2 (unknown origin) ubiquitylation transfected in human BEAS2B cells at 6.25 uM after 6 hrs by immunoblot analysis. The test is classed as cell-based.
Test [7] has as its target T2, Nuclear factor erythroid 2-related factor 2 (Mus musculus) (UniProt Q60795).
T2 sequence (whole entry): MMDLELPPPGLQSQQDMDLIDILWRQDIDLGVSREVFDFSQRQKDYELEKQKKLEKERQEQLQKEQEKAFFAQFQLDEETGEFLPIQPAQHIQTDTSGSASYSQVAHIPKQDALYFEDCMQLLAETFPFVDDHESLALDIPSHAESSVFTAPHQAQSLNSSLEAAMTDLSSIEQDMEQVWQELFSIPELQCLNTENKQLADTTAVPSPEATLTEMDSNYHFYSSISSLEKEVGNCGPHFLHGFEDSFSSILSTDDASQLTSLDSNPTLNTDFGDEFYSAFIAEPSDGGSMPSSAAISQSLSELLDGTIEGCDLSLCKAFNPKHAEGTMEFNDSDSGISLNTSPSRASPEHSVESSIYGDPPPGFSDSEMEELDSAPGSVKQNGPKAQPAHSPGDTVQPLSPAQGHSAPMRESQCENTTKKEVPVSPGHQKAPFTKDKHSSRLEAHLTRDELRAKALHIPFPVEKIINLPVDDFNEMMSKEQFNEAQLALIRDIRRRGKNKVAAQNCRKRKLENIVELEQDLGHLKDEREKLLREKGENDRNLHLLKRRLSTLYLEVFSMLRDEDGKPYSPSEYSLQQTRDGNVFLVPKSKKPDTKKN
The test can be described thus: Activation of Nrf2 in mouse Heap1c1c7 cells assessed as induction of NAD(P)H:quinone reductase activity at 6.25 uM pretreated for 1 hr followed by co-treatment with PI3K inhibitor LY294002 for 24 hrs. The test is classed as cell-based.

For test [8], the target named is T2, Nuclear factor erythroid 2-related factor 2 (Mus musculus). The test is described as follows: Activation of Nrf2 in mouse Heap1c1c7 cells assessed as induction of NAD(P)H:quinone reductase activity at 6.25 uM pretreated for 1 hr followed by co-treatment with MEK1/2 inhibitor PD98059 for 24 hrs. The test is classed as cell-based.
For test [9] the target is unchanged. The test is described as follows: Activation of Nrf2 in mouse Heap1c1c7 cells assessed as induction of NAD(P)H:quinone reductase activity at 6.25 uM pretreated for 1 hr followed by co-treatment with PERK inhibitor GSK2606414 for 24 hrs. It counts as cell-based.
Test [10] has the same target. The test is described as follows: Activation of Nrf2 in mouse Heap1c1c7 cells assessed as induction of NAD(P)H:quinone reductase activity at 6.25 uM pretreated for 1 hr followed by co-treatment with MEK1/2 inhibitor Uo126 for 24 hrs. The test is classed as cell-based.
Test [11] has as its target T1, Nuclear factor erythroid 2-related factor 2 (Homo sapiens). The test can be described thus: Activation of Nrf2 in human BEAS2B cells assessed as upregulation of Nrf2 protein expression at 6.25 uM pretreated for 1 hr followed by co-treatment with PI3K inhibitor LY294002 for 18 hrs by immunoblot analysis. It counts as cell-based.
For test [12] the target is unchanged. The test can be described thus: Activation of Nrf2 in human BEAS2B cells assessed as upregulation of Nrf2 protein expression at 6.25 uM pretreated for 1 hr followed by co-treatment with MEK1/2 inhibitor PD98059 for 18 hrs by immunoblot analysis. The test is classed as cell-based.
For test [13] the target is unchanged. The test is described as follows: Activation of Nrf2 in human BEAS2B cells assessed as upregulation of Nrf2 protein expression at 6.25 uM pretreated for 1 hr followed by co-treatment with PKC inhibitor Ro-31-8220 for 18 hrs by immunoblot analysis. The test is classed as cell-based.
Test [14] has the same target. The test can be described thus: Activation of Nrf2 in human BEAS2B cells assessed as upregulation of NQO1 protein expression at 6.25 uM pretreated for 1 hr followed by co-treatment with PKC inhibitor Go6983 for 18 hrs by immunoblot analysis. The test is classed as cell-based.
The target is the same in test [15]. The test is described as follows: Activation of Nrf2 in human BEAS2B cells assessed as upregulation of NQO1 protein expression at 6.25 uM pretreated for 1 hr followed by co-treatment with PERK inhibitor GSK2606414 for 18 hrs by immunoblot analysis. It counts as cell-based.

As to `COc1ccc(-c2coc3cc(OC)cc(O)c3c2=O)cc1` [4',7-DIMETHOXY-5-HYDROXYGENISTEIN], the result (in test [1]; in the test with BEAS-2B [5]; in [7]; in test [8]; in test [9]; in [11]) was inactive. Further, the outcome in test [12], in test [13], in [14] and in test [15] was inactive. Besides, the outcome (with BEAS-2B [2]; in test [3]; in [4]; in test [10]) was Active. Further, the inhibition result in [6] is “Active”.
